Measured values reported in patent US7998460B2, “Prevention of deficits in neurogenesis with anti-inflammatory agents” (The Board of Trustees of the Leland Stanford Junior …, priority 2003, dated 2011).
“Also recorded” adds a separate entry of the source.

System: hippocampal neurogenesis
Test: 10 Gy cranial X-irradiation, microglial inflammation and hippocampal neurogenesis at 2 months
Type: in vivo, rat
Description: Because rats are more radio resistant than humans, 10 Gy approximates a clinically relevant dose and is below the threshold to cause demyelination or overt vasculopathy in rats. This dose of X-irradiation was previously shown to spare roughly 30% of the NPC proliferative activity but completely ablate the production of neurons. X-irradiation was limited to a 1.5 cm cylinder centered over the cranium (remaining body parts were shielded). One month later, BrdU was administered systemically and at 2 months post-irradiation, brain tissues were analyzed for hippocampal neurogenesis.
Control animals were given either vehicle (5% bicarbonate) injections i.p. or plain dog food. To ensure complete consumption of food and medication in the 2 month paradigm, rats were restricted to 80% of their ad lib intake.
Irradiation Adult female Fisher 344 rats were anesthetized with ketamine and xylazine and exposed to cranial irradiation using a Philips orthovoltage X-ray system operated at 200 kVp and 20 mA. A single dose of 10 Gy was delivered to the cranium of each rat with shielding of the body, neck, eyes and snout. Dosimetry was done using TLD dosimeters (K & S Associates, Nashville, Tenn.) buried in the hippocampi, cerebellum, mouth, eyes and ears of euthanized rats. The corrected dose rate was approximately 44.5 cGy/minute. Sham-irradiated controls for all experiments received anesthesia only.
BrdU injections and tissue preparation. Animals were injected intraperitoneally with BrdU once each day for 6 days. Animals were then anesthetized and sacrificed on the 28th day after the initial BrdU injection by transcardial perfusion with 4% paraformaldehyde. Brains were removed and postfixed overnight and then equilibrated in phosphate buffered 30% sucrose. Free floating 40 μm sections were collected on a freezing microtome and stored in cryoprotectant as previously described.
Immunocytochemistry and immunofluorescent staining. […]
Cell counting and unbiased stereology. […] The proportion of BrdU cells displaying a lineage-specific phenotype was determined by scoring the co-localization of cell phenotype markers with BrdU using confocal microscopy. […] When possible, 100 or more BrdU-positive cells were scored for each marker per animal. Each cell was manually examined in its full “z”-dimension and only those cells for which the nucleus was unambiguously associated with the lineage-specific marker were scored as positive. The total number of BrdU-labeled cells per hippocampal granule cell layer and subgranule zone was determined using diaminobenzadine stained tissues. In a separate series, the total number of ED1-labeled cells per dentate gyrus was also determined using diaminobenzadine stained tissue. Stained BrdU-positive nuclei or ED1-positive cells were scored under light microscopy using Microbrightfield Stereo Investigator software and the Fractionator method. Overestimation was corrected using the Abercrombie method for nuclei with empirically determined average diameter of 13 μm within a 40 μm section.

In the case of COc1ccc2c(c1)c(CC(=O)O)c(C)n2C(=O)c1ccc(Cl)cc1 [indomethacin], the “effect on cell fate in non-irradiated rats” value (indomethacin, non-irradiated) is reported as “no effect”, the “effect on CD11b/NG2+ infiltrating peripheral monocytes” value (irradiated, indomethacin 2.5 mg/Kg orally every 12 hours) is reported as “particularly effective at decreasing; also recorded: significantly reduced” and the “proportion of proliferative cells adopting a neuronal fate” value (irradiated, indomethacin-treated (untreated irradiated 15%)) is reported as 37%. For the same molecule, the “total newborn hippocampal neurons” value (irradiated, indomethacin-treated (untreated irradiated 125±25)) was 360±68 newborn neurons and the “total BrdU+ proliferative cells per neurogenic region of the dentate gyrus” value (irradiated, indomethacin-treated (untreated irradiated 828±135)) was 958±136 proliferative cells.
